Measurements from the supplement of paper PMC4858399.

How the values were obtained:
[1] = tested on: Caenorhabditis elegans N2; test: lowest effective concentration for larval growth inhibition (size below effect threshold); higher = less potent; conditions: exposure time 48 h
Method in brief: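 Chemical exposure ran for 48 h at 20°C: 50 C. elegans N2 L1 larvae per 96-well in K-medium with killed bacteria, 1% DMSO and 0.5, 1, 5, 10, 50, 100 or 200 µM chemical. Extinction of each worm, read as size on the Biosort, was log-transformed and averaged by well. The lowest effective concentration is the first dose whose plate-adjusted mean size is below a fixed value and remains so at all higher doses; the value is 5.665.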

[2] = tested on: Caenorhabditis elegans N2; test: mean nematode size ln(EXT) after 48 h, plate-adjusted (DMSO control set to 6) (ln(EXT), control-adjusted); higher = larger nematodes / less growth inhibition; conditions: exposure time 48 h
Method in brief: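 In K-medium with killed OP50, 1% DMSO and 0.5–200 µM chemical, synchronised N2 L1 larvae of C. elegans (50 per well) grew for 48 h at 20°C. Extinction was read for every worm on the Biosort, with debris removed by a growth model. Natural-log values averaged per well gave mean size, which was corrected per plate by subtracting the vehicle control mean and adding 6.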

Cc1cccc(N)c1 [3-Methylaniline]
lowest effective concentration [1]: > 200 µM | mean nematode size ln(EXT) (ln) ([2]; 0.5 µM): 5.82 | mean nematode size ln(EXT) (ln) ([2]; 1 µM): 5.86 | mean nematode size ln(EXT) (ln) ([2]; 5 µM): 5.86 | mean nematode size ln(EXT) (ln) ([2]; 10 µM): 5.88 | mean nematode size ln(EXT) (ln) ([2]; 50 µM): 5.91 | mean nematode size ln(EXT) (ln) ([2]; 100 µM): 5.99 | mean nematode size ln(EXT) (ln) ([2]; 200 µM): 5.79

Nc1ccc(C(=O)O)cc1 [4-Aminobenzoic acid]
lowest effective concentration [1]: > 200 µM | mean nematode size ln(EXT) (ln) ([2]; 0.5 µM): 5.84 | mean nematode size ln(EXT) (ln) ([2]; 1 µM): 5.87 | mean nematode size ln(EXT) (ln) ([2]; 5 µM): 5.81 | mean nematode size ln(EXT) (ln) ([2]; 10 µM): 5.49 | mean nematode size ln(EXT) (ln) ([2]; 50 µM): 5.83 | mean nematode size ln(EXT) (ln) ([2]; 100 µM): 5.85 | mean nematode size ln(EXT) (ln) ([2]; 200 µM): 5.72

CN(Cc1cnc2nc(N)nc(N)c2n1)c1ccc(C(=O)N[C@@H](CCC(=O)O)C(=O)O)cc1 [Methotrexate]
lowest effective concentration [1]: > 200 µM | mean nematode size ln(EXT) (ln) ([2]; 0.5 µM): 5.83 | mean nematode size ln(EXT) (ln) ([2]; 1 µM): 5.86 | mean nematode size ln(EXT) (ln) ([2]; 5 µM): 5.81 | mean nematode size ln(EXT) (ln) ([2]; 10 µM): 5.85 | mean nematode size ln(EXT) (ln) ([2]; 50 µM): 5.84 | mean nematode size ln(EXT) (ln) ([2]; 100 µM): 5.82 | mean nematode size ln(EXT) (ln) ([2]; 200 µM): 5.75

Cc1ccc(S(=O)(=O)NC(=O)NN2CCCCCC2)cc1 [Tolazamide]
lowest effective concentration [1]: > 200 µM | mean nematode size ln(EXT) (ln) ([2]; 0.5 µM): 5.93 | mean nematode size ln(EXT) (ln) ([2]; 1 µM): 5.92 | mean nematode size ln(EXT) (ln) ([2]; 5 µM): 5.93 | mean nematode size ln(EXT) (ln) ([2]; 10 µM): 5.91 | mean nematode size ln(EXT) (ln) ([2]; 50 µM): 5.61 | mean nematode size ln(EXT) (ln) ([2]; 100 µM): 5.87 | mean nematode size ln(EXT) (ln) ([2]; 200 µM): 5.79

Cc1cc(=O)[nH]c(=S)[nH]1 [Methylthiouracil]
lowest effective concentration [1]: > 200 µM | mean nematode size ln(EXT) (ln) ([2]; 0.5 µM): 6.01 | mean nematode size ln(EXT) (ln) ([2]; 1 µM): 5.97 | mean nematode size ln(EXT) (ln) ([2]; 5 µM): 5.94 | mean nematode size ln(EXT) (ln) ([2]; 10 µM): 5.97 | mean nematode size ln(EXT) (ln) ([2]; 50 µM): 6 | mean nematode size ln(EXT) (ln) ([2]; 100 µM): 6.12 | mean nematode size ln(EXT) (ln) ([2]; 200 µM): 5.98

O=C(O)c1nc(Cl)ccc1Cl [Clopyralid]
lowest effective concentration [1]: > 200 µM | mean nematode size ln(EXT) (ln) ([2]; 0.5 µM): 5.75 | mean nematode size ln(EXT) (ln) ([2]; 1 µM): 5.75 | mean nematode size ln(EXT) (ln) ([2]; 5 µM): 5.75 | mean nematode size ln(EXT) (ln) ([2]; 10 µM): 5.87 | mean nematode size ln(EXT) (ln) ([2]; 50 µM): 5.93 | mean nematode size ln(EXT) (ln) ([2]; 100 µM): 5.89 | mean nematode size ln(EXT) (ln) ([2]; 200 µM): 6.08

C=CCc1ccc(O)c(OC)c1 [Eugenol]
lowest effective concentration [1]: > 200 µM | mean nematode size ln(EXT) (ln) ([2]; 0.5 µM): 5.89 | mean nematode size ln(EXT) (ln) ([2]; 1 µM): 5.9 | mean nematode size ln(EXT) (ln) ([2]; 5 µM): 5.93 | mean nematode size ln(EXT) (ln) ([2]; 10 µM): 5.98 | mean nematode size ln(EXT) (ln) ([2]; 50 µM): 5.91 | mean nematode size ln(EXT) (ln) ([2]; 100 µM): 5.87 | mean nematode size ln(EXT) (ln) ([2]; 200 µM): 5.77

C[C@@H](Oc1ccc(CNC(=O)c2cccnc2Oc2ccc3c(c2)OCO3)c(F)c1)C(=O)O
lowest effective concentration [1]: > 200 µM | mean nematode size ln(EXT) (ln) ([2]; 0.5 µM): 5.79 | mean nematode size ln(EXT) (ln) ([2]; 1 µM): 5.84 | mean nematode size ln(EXT) (ln) ([2]; 5 µM): 5.86 | mean nematode size ln(EXT) (ln) ([2]; 10 µM): 5.84 | mean nematode size ln(EXT) (ln) ([2]; 50 µM): 5.92 | mean nematode size ln(EXT) (ln) ([2]; 100 µM): 5.86 | mean nematode size ln(EXT) (ln) ([2]; 200 µM): 5.72

Cc1ccc([N+](=O)[O-])cc1C [1,2-Dimethyl-4-nitrobenzene]
lowest effective concentration [1]: > 200 µM | mean nematode size ln(EXT) (ln) ([2]; 0.5 µM): 5.84 | mean nematode size ln(EXT) (ln) ([2]; 1 µM): 5.96 | mean nematode size ln(EXT) (ln) ([2]; 5 µM): 5.89 | mean nematode size ln(EXT) (ln) ([2]; 10 µM): 5.8 | mean nematode size ln(EXT) (ln) ([2]; 50 µM): 5.86 | mean nematode size ln(EXT) (ln) ([2]; 100 µM): 5.8 | mean nematode size ln(EXT) (ln) ([2]; 200 µM): 5.81

CC(=O)c1ccccc1 [Acetophenone]
lowest effective concentration [1]: > 200 µM | mean nematode size ln(EXT) (ln) ([2]; 0.5 µM): 6 | mean nematode size ln(EXT) (ln) ([2]; 1 µM): 6.01 | mean nematode size ln(EXT) (ln) ([2]; 5 µM): 6.03 | mean nematode size ln(EXT) (ln) ([2]; 10 µM): 6.08 | mean nematode size ln(EXT) (ln) ([2]; 50 µM): 6.16 | mean nematode size ln(EXT) (ln) ([2]; 100 µM): 6.11 | mean nematode size ln(EXT) (ln) ([2]; 200 µM): 5.78

CC1(C)C(=O)NC(=O)N1CO [1-(Hydroxymethyl)-5,5-dimethylhydantoin]
lowest effective concentration [1]: > 200 µM | mean nematode size ln(EXT) (ln) ([2]; 0.5 µM): 5.87 | mean nematode size ln(EXT) (ln) ([2]; 1 µM): 6.04 | mean nematode size ln(EXT) (ln) ([2]; 5 µM): 5.96 | mean nematode size ln(EXT) (ln) ([2]; 10 µM): 5.91 | mean nematode size ln(EXT) (ln) ([2]; 50 µM): 5.91 | mean nematode size ln(EXT) (ln) ([2]; 100 µM): 5.85 | mean nematode size ln(EXT) (ln) ([2]; 200 µM): 5.69

COS(C)(=O)=O [Methyl methanesulfonate]
lowest effective concentration [1]: > 200 µM | mean nematode size ln(EXT) (ln) ([2]; 0.5 µM): 5.92 | mean nematode size ln(EXT) (ln) ([2]; 1 µM): 5.9 | mean nematode size ln(EXT) (ln) ([2]; 5 µM): 5.9 | mean nematode size ln(EXT) (ln) ([2]; 10 µM): 5.87 | mean nematode size ln(EXT) (ln) ([2]; 50 µM): 5.81 | mean nematode size ln(EXT) (ln) ([2]; 100 µM): 5.52 | mean nematode size ln(EXT) (ln) ([2]; 200 µM): 5.89

O=[N+]([O-])c1ccc(Cl)cc1 [1-Chloro-4-nitrobenzene]
lowest effective concentration [1]: > 200 µM | mean nematode size ln(EXT) (ln) ([2]; 0.5 µM): 5.94 | mean nematode size ln(EXT) (ln) ([2]; 1 µM): 5.94 | mean nematode size ln(EXT) (ln) ([2]; 5 µM): 5.97 | mean nematode size ln(EXT) (ln) ([2]; 10 µM): 5.87 | mean nematode size ln(EXT) (ln) ([2]; 50 µM): 6.01 | mean nematode size ln(EXT) (ln) ([2]; 100 µM): 6 | mean nematode size ln(EXT) (ln) ([2]; 200 µM): 5.75

OCCCl [2-Chloroethanol]
lowest effective concentration [1]: > 200 µM | mean nematode size ln(EXT) (ln) ([2]; 0.5 µM): 6 | mean nematode size ln(EXT) (ln) ([2]; 1 µM): 5.9 | mean nematode size ln(EXT) (ln) ([2]; 5 µM): 5.92 | mean nematode size ln(EXT) (ln) ([2]; 10 µM): 5.82 | mean nematode size ln(EXT) (ln) ([2]; 50 µM): 5.91 | mean nematode size ln(EXT) (ln) ([2]; 100 µM): 5.95 | mean nematode size ln(EXT) (ln) ([2]; 200 µM): 5.83
